Tests used:
[1] = tested on: Peptide (NH2-)FLNCCPGCCMEP(-COOH) [SEQ ID No 6]; test: Complex formation with tetracysteine-tagged peptide in MOPS/MES/EDT buffer, LC-MS analysis; assay type: binding; conditions: probe in DMSO + 1 mM peptide, stirred 10-30 minutes
Description: Experiments were performed according to Nature Protocols Vol.3 No.9, 1527-1534, (Adams & Tsien) with minor modifications.
Materials: Peptide (NH2—)[…](—COOH) [SEQ ID No 6], M.w: 1316.63, supplied by INNOVAGEN, Sweden, MOPS sodium salt FW: 231.2 CAS [71119-22-7], MES sodium salt FW: 164.16 CAS [19767-45-4], and EDT FW:94.2 CAS [540-63-6] were used as received.
HPLC analyses employed a Waters Alliance 2795 LC system, equipped with an XBridge C18 3.0×50 mm 3.5 μm column. The mass detector had polarity ES+/polarity ES-. Solvents, A: 0.1 M NH3 in milliQ water, B: MeOH. Gradient, A: 95% 0.1 min, 0.1-4 min A:95% to B:100%, 4.0-4.6 min B:100%.
The radiodetector employed was a Raytest Star (solid cell). Chromatography with radiodetection was performed using a Kromasil C18, 5μ 250×10 mm column, and an isocratic eluent composed of 35% acetonitrile in 50 mM ammonium acetate, at a flow rate of 2.0 mL/min.
To this solution was added 200 μL of 1 mM PSMXB-4 (in DMSO). […] The reaction mixture was stirred for 30 minutes. […] The mass peaks corresponded to dianionic and trianionic species.
To this solution was added 200 μL of 1 mM PSMXB-6 (in DMSO). […] The reaction mixture was stirred for 30 minutes. […] The mass peak corresponded to the dianionic species.
The reaction mixture is stirred for 10 minutes. […] The mass peak corresponded to the dianionic species. […] HPLC purification allowed isolation of the pure, tritiated complex.

[2] = tested on: unrelated peptide with N-terminal biotin; test: Surface plasmon resonance, reference channel with unrelated biotinylated control peptide; assay type: binding; conditions: 100 μM injected
Source text: The biotinylated peptide was immobilized on a sensor chip (Sensor Chip SA BiaCore) by non-covalent capture to streptavidin according to manufacturer instructions. An unrelated peptide with N-terminal biotin was coupled to a reference channel. […] At the end of the injection phase, the sensor surface was washed (Wash arrow FIG. 1A) with […] pH7.4, 0.15 M NaCl.

Row | Molecule | complex formation with peptide by LC-MS [1] | interaction with unrelated control peptide [2]
1 | 2,5-di-(1,3,2-Dithiarsolan-2yl)-9(4-fluorophenyl)-6-[^3H3]methoxy-3-fluorone [6-[^3H3CO]-PSMXB-6] | complete conversion into the complex | –
2 | O=c1ccc2c(-c3ccc(F)cc3)c3ccc(O)c([As]4SCCS4)c3oc-2c1[As]1SCCS1 [PSMXB-4, 2,5-di-(1,3,2-dithiarsolan-2-yl)-9-(4-fluorophenyl)-6-hydroxy-3-fluorone] | mass spectrum consistent with the complex | –
3 | COc1ccc2c(-c3ccc(F)cc3)c3cc([As]4SCCS4)c(=O)cc-3oc2c1[As]1SCCS1 [PSMXB-6, 2,5-di-(1,3,2-Dithiarsolan-2yl)-9(4-fluorophenyl)-6-methoxy-3-fluorone] | mass spectrum consistent with the complex | No interaction was detected

Reference: patent US8852552B2, “Agents and methods for visualizing analytes” (priority 2010, dated 2014)
